Results as given in US10808001B2, “Biflavone-cobalt complex, preparation method and application thereof” (NANJING FORESTRY UNIVERSITY, priority 2017, dated 2020).

Key:
[1] = system: cervical cancer cells (HeLa); test: MTT method, inhibition of cervical cancer cells (HeLa); type: cell-based; settings: Homo sapiens, absorbance at 595 nm, modified Karber formula, read-out: IC50, inhibition of growth of cervical cancer cells (HeLa)
Protocol: (§1) The antitumor activity of Ame and Ame-Co complex were studied by MTT method with the following process:
(§2) (1) The HepG2 and HeLa cell suspensions were inoculated into 96-well culture plates, 100 μL was added for each well, (1×10^5/mL), and then cultured in a 5% CO2 incubator at 37° C. for 24 h;
(§3) (2) After culturing for 24 h, the supernatant was discarded, 100 μL of pre-diluted sample was added, 10 replicate wells were set for each concentration, and then incubated in the 5% CO2 incubator for 24 h; meanwhile, control wells (DMSO, cell suspension, MTT), and blank wells (medium, DMSO, MTT) were set;
(§4) (3) After culturing for […], the supernatant was discarded, 100 μL of DMEM medium containing MTT (5 mg/mL) were added, and then continuously cultured for 4 h; […]
(§5) Where, IR is the inhibition rate, OD0 is the absorbance of the control group, OD1 is the absorbance of the sample group, Xm is lg (the maximum dose), I is lg (the maximum dose/adjacent dose), P is the sum of positive reaction rates, Pm is the maximum positive reaction rate, and Pn is the minimum positive reaction rate.

herring sperm DNA (fDNA) = test: Interaction with fDNA by UV-vis spectroscopy, fluorescence spectroscopy (fDNA-EB system) and viscosity method; type: binding; settings: UV-vis, fluorescence (fDNA-EB) and viscosity methods
Excerpt: UV-vis spectroscopy, fluorescence spectroscopy and viscosity method are used to study the interaction between the Ame/Ame-Co complex and herring sperm DNA (fDNA) to further reveal the mechanism of antitumor activity, the obtained spectra are shown in FIGS. 7-11.

hepatoma cells (HepG2) = test: MTT method, inhibition of hepatoma cells (HepG2); type: cell-based; settings: Homo sapiens, HepG2, absorbance at 595 nm, modified Karber formula, read-out: IC50, inhibition of growth of hepatoma cells (HepG2)
Protocol: as §1, §2, §3, §4, §5

[2] = Pyrogallol auto-oxidation method, O2^−. free radical scavenging; settings: Tris-HCl pH 8.20, 25° C., 322 nm, read-out: IC50 to scavenge O2^−. free radical
Protocol: The free radical scavenging capacity and the total antioxidant capacity of the Ame and the Ame-Co complex were studied by pyrogallol auto-oxidation method, ABTS method and FRAP method with the following steps:
(1) Pyrogallol Auto-Oxidation Method
Determination of auto-oxidation rate V0 of pyrogallol: 2 mL Tris-HCl buffer (pH=8.20) was added to a 10 mL sample tube at 25° C., 100 μL DMSO was added as a control, after adding 0.8 mL distilled water, 0.2 mL pyrogallol solution having a concentration of 2 mmol·L^−1 was added, the mixture was poured into a cuvette after mixing uniformly, the absorbance at 322 nm was measured with pure water as a blank, the A value was recorded every 10 s for a total of 4 min, linear regression was performed with t as the abscissa, and A as the ordinate, straight line slope thereof is V0, and the measurement was performed for three times to obtain an average value. […]

[3] = FRAP method, total antioxidant capacity; settings: Fe^3+-TPTZ, 37° C., 30 min, 593 nm
Protocol: Drawing of the standard curve of FeSO4.7H2O: different volumes of FeSO4.7H2O solution were added to NaAc—HAc buffer (pH=3.6) to prepare Fe^2+ solution with different concentrations. 0.5 mL TPTZ solution, 0.1 mL DMSO, and 1.9 mL NaAc—HAc buffer containing Fe^2+ were successively added into a 10 mL sample tube, after reacting for 5 min at 37° C., the UV-vis spectrum was measured, and the absorption intensity at 593 nm was recorded, and the standard curve was drawn with absorbance (A) as the vertical coordinate and Fe^2+ concentration as the horizontal coordinate.
Determination of total antioxidant capacity of the sample: 0.5 mL TPTZ solution, 0.5 mL ferric chloride solution, 0.1 mL DMSO solution containing samples of different concentrations, and 1.5 mL NaAc—HAc buffer were successively added into a 10 mL sample tube, after reacting for 30 min at 37° C., the UV-vis spectrum was measured, and the absorption intensity A1 at 593 nm was recorded, the absorbance A1 of the sample was converted to the corresponding Fe^2+ ion concentration according to the standard curve of ferrous sulfate, and the curve was drawn with the sample concentration (csample) as the horizontal coordinate and the corresponding Fe^2+ concentration (cFe2+) as the vertical coordinate. […]

| IC50 [1] | IC50 (hepatoma cells (HepG2)) | SMILES | manner of interaction with fDNA (herring sperm DNA (fDNA)) | IC50 [2] | total antioxidant capacity compared with Ame at the same concentration [3] | strength of interaction with fDNA compared with Ame (herring sperm DNA (fDNA)) |
| --- | --- | --- | --- | --- | --- | --- |
| 8.04 µM | 13.6 µM | O=c1cc(-c2ccc(O)c(-c3c(O)cc(O)c4c(=O)cc(-c5ccc(O)cc5)oc34)c2)oc2cc(O)cc(O)c12 [Ame, amentoflavone] | in the intercalation manner | 23.3 µM |  |  |
|  |  | CS(C)=[O+][Co-4]1([O+]=S(C)C)[O+]=C2C=C(c3ccc(O)cc3)Oc3c2c(cc(O)c3-c2cc(-c3cc(=O)c4c(O)cc(O)cc4o3)ccc2O)[OH+]1 [Ame-Co complex, amentoflavone-cobalt (Ame-Co) complex] | in the intercalation manner | 4.74 µM | significantly stronger than that of Ame | stronger than that between the Ame and the fDNA |
